# Tests used:
# MS patients [1] = test: Stage 1A clinical study: single 1000 mg IV ACZ bolus, cerebral blood flow by pCASL MRI
# healthy controls = settings: historical reports; cited from earlier work
# MS patients [2] = test: Stage 1B dose-escalation study: twice daily oral ACZ, cerebral blood flow by pCASL MRI, DTI and T2 relaxometry
# [3] = Subj 001, oral 1000 mg BID for 2 weeks, versus baseline
structure (smiles),measurement,setting,value
"CC(=O)Nc1nnc(S(N)(=O)=O)s1 [ACZ, acetazolamide]",time for global CBF to return near baseline,"MS patients [1]; after IV ACZ, MS patients",120 min
same,change in global cerebral perfusion (pCASL),MS patients [1]; following IV ACZ,Rapid increases
same,duration of increases in CBF above baseline,"MS patients [1]; single 1000 mg IV bolus, regardless of region",up to 180 minutes
same,tolerability of single IV bolus,"MS patients [1]; single bolus of IV ACZ, five MS patients",generally well tolerated without serious AEs
same,time for cerebral blood flow (CBF) to return near baseline,healthy controls,≤ 60 min
same,CBF in the region with the larger T2 to T1 mismatch (qualitative pCASL),MS patients [2]; [3],increased
same,qualitative DTI and T2 relaxometry measures,MS patients [2]; [3],changed little
same,potential for tachyphylaxis,"MS patients [2]; oral, 1000 mg twice daily",limited if any potential for tachyphylaxis
same,sustained increases in global CBF,"MS patients [2]; oral, 1000 mg twice daily",10-25%
same,tolerability of oral ACZ,"MS patients [2]; oral, 1000 mg twice daily","well tolerated, with minimal reported adverse events"
